Patent US11859235B2, “Sensor, detection method, reagent and kit” (priority 2020, dated 2024)

Test system: acetylcholinesterase
Assay: acetylcholine decomposition by acetylcholinesterase in a mixed system, monitored as pH change rate
Assay type: biochemical
Conditions: addition of limonene to the mixed system of acetylcholine and acetylcholinesterase; FIG. 3
Excerpt: The reaction of the above formula (1) is a chemical reaction in which acetylcholine acts as a substrate and acetylcholinesterase acts as an enzyme. In general, it is known that a chemical reaction using an enzyme is inhibited by a specific chemical substance for each enzyme, and the reaction rate is reduced or the reaction is stopped. The chemical substance is hereinafter referred to as an “inhibitor”. Here, in the mixed system of acetylcholinesterase and acetylcholine shown in FIG. 2A, when the inhibitor starts to be contained from time t, the cumulative amount of acetylcholine decomposition product after time t changes, that is, the slope of the graph decreases (see FIG. 2B). Therefore, by monitoring the decomposition rate of acetylcholine in the mixed system, it is possible to detect whether or not an inhibitor is present in the mixed system.
The target substance to be detected by the sensor according to the present embodiment is an inhibitor against the acetylcholine decomposition reaction of acetylcholinesterase. Examples of this inhibitor include limonene. […] Examples of the inhibitor other than limonene against the acetylcholine decomposition reaction of acetylcholinesterase include terpenoids such as ambrein and pinene, flavonoids such as luteolin, alkaloids such as galantamine, and glycosides such as Cynatroside A.

Compound: C=C(C)[C@H]1CC=C(C)CC1 [limonene]
- effect on the pH change rate of the mixed system of acetylcholine and acetylcholinesterase (inhibitory effect on the acetylcholine decomposition reaction): reduces the pH change rate of the mixed system
